According to patent US10561665B2, “Treatment of autism” (priority 2014, dated 2020):
Like-named read-outs stand apart in the source and are kept apart here.

Experiments:
[1] = tested on: mice with lesions of the nucleus basalis magnocellularis; settings: cited from earlier work; for increase of time remaining in the lighted compartment versus saline: nBM lesioned mice, compound given during training, optimal performance; for best dose for memory enhancement: passive avoidance, 24 hour retention
[2] = tested on: cholinesterase; experiment: cholinesterase inhibition (IC50); assay type: biochemical
[3] = liver microsome stability; assay type: in vitro ADME, Mouse; settings: for half-life at 5 μM: mouse, liver microsomes
[4] = tested on: Mecp2 mice; experiment: locomotor activity (photobeam) in Mecp2 mutant mice and controls; assay type: in vivo; settings: 0.1 to 20 mg/kg
Description: Locomotor activity was monitored using methods described previously (Shaevitz et al. 2013 Genes Brain Behav, 12(7): 732-40. doi: 10.1111/gbb.12070). Mecp2 mutant males (between 1 and 3 months old) and females (between 3 and 6 months old) and age-matched controls were monitored for one-hour prior to and 12 hours after drug (or vehicle: 20% DMSO in saline) administration (one set of mice received IP injections and one set of mice received oral gavage) in doses that ranged from 0.1-20 mg/kg). Activity was measured across the 12-h dark cycle using a photobeam activity system (San Diego instruments, San Diego, Calif., USA). Mice were placed individually into a cage (47×25×21 cm) inside a rectangular arena equipped with a 3×8 array of photobeams. The average number of ambulatory (two adjacent) and fine (repeated single) beam breaks per hour over the 12 h was compared. [N=2 mice/group at each dose and each administration route; for the vehicle controls, N=6 WT/group; N=6 Mecp2/group]. Data were analyzed using repeated measures analysis of variance.

[5] = target: cholinesterase; settings: cholinesterase inhibitor (Han et al 1991); cited from earlier work
[6] = tested on: CaCo-2 cells; experiment: in vitro permeability of a layer of CaCo-2 cells; assay type: in vitro ADME, human; settings: predicted from CaCo-2 permeability
[7] = stability in mouse plasma
[8] = tested on: female Mecp2 mice; experiment: novel object recognition (NOR) task in female Mecp2 mice; assay type: in vivo; settings: Mecp2 females
Description: Cognitive function was assessed using the novel object recognition (NOR) task using methods previously described (Schaevitz et al. 2013). […] Novel object memory was assessed during three sessions. This task relies on the innate tendency of a mouse to explore unfamiliar objects vs. familiar objects. Testing was performed in an open-field arena. Twenty-four hours prior to training, mice were habituated to the arena for 10 min. Ninety minutes before training, the mice were administered drug or vehicle (0.1, 0.5, 1.0, 2.5 and 5.0 mg/kg IP). During training, mice were given 10 min to explore two identical Lego objects (A+A). Short- and long-term object memory were assessed in two subsequent sessions ([…]) during which mice were given 10 min to explore the familiar (A) or a novel (B or C) object. The duration of exploration (defined as the mouse's snout or forelimbs physically touching or approaching within 1 cm of an object) of familiar and novel objects was measured. The amount of time spent exploring the novel object over the total time exploring both novel and familiar objects in each session was used to measure object memory. [N=6/dose of 0.1, 0.5 and 1.0; N=1/dose of 2.5 and 5.0 mg/kg; for vehicle N=6 WT and N=6 Mecp2 mice.]
For the novel objection recognition task data, we created a matrix of all wildtype and Mecp2 females who were administered the vehicle and a second matrix comparing Mecp2 females with and without the drug (all doses combined).

[9] = tested on: mice; settings: cited from earlier work; for adverse effects at very high doses: 50-100 mg/kg
[10] = tested on: Mecp2 mice; experiment: respiratory function (plethysmograph) in Mecp2 mutant mice and controls; assay type: in vivo; settings: IP or gavage, 0.1 to 20 mg/kg
Description: Respiratory function was monitored in a plethysmograph (EMKA Technologies) for 30 minutes prior to and 1 hour after drug administration (one set of mice received IP injections and one set of mice received oral gavage). [N=2 mice/group at each dose and each administration route; for the vehicle controls, N=6 WT/group; N=6 Mecp2/group]. Data were analyzed using repeated measures analysis of variance.

[11] = target: T1, α7 nicotinic receptors (Rattus norvegicus, UniProt Q05941); settings: cited from earlier work
T1 construct: Primary cultured rat neurons can be depolarized by the application of 1.5 mM choline; endogenous in cells; host or cells: primary cultured rat neurons
T1 sequence (Q05941 23-502): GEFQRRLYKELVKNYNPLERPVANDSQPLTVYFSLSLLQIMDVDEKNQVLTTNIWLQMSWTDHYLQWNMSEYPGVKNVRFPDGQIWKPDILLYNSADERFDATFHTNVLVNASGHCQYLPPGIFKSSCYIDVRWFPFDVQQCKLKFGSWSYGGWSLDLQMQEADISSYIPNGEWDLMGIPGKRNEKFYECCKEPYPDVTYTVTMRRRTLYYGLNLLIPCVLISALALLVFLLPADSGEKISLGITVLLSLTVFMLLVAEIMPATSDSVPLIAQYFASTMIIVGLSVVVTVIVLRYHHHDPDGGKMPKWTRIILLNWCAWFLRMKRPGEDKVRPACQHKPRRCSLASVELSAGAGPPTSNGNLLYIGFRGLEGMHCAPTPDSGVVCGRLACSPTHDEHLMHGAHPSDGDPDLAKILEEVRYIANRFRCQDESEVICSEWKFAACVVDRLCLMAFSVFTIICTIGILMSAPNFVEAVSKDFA

[12] = tested on: ASD patients; settings: case reports, open-label and poorly documented studies; cited from earlier work
[13] = tested on: mild cognitive impairment population; settings: patients with mild cognitive impairment; cited from earlier work
[14] = tested on: patient with 15q13.3 deletion syndrome; settings: one patient; cited from earlier work
[15] = human patients; cited from earlier work
[16] = 5.0 μM, Mouse, read-out: NADPH-dependent T1/2 (half-life)
[17] = 5.0 μM, Mouse, read-out: NADPH-free T1/2 (half-life)
[18] = all doses combined (0.1-5.0 mg/kg IP)

Compound: CCCCNC(=O)O[C@H]1C=C[C@@]23CCN(C)Cc4ccc(OC)c(c42)O[C@H]3C1 [Galantamine n-butylcarbamate, n-butylcarbamate derivative of galantamine]
- increase of time remaining in the lighted compartment versus saline [1]: about 100 seconds
- best dose for memory enhancement [1]: 0.5 mg/kg
- cholinesterase inhibitory potency relative to galantamine [2]: about 36%
- NADPH-dependent CLint (microsomal intrinsic clearance) ([3]; 5.0 μM, Mouse): 23.5 μl min^−1 mg−^1
- NADPH-free CLint (microsomal intrinsic clearance) ([3]; 5.0 μM, Mouse): 0.0 μl min^−1 mg−^1
- half-life at 5 μM [3, 16]: 1.64 h
- half-life at 5 μM [3, 17]: > 1 h
- half-life at 5 μM ([3]; in-vitro preparation of liver microsomes, read-out: half-life in liver microsomes): > 1 h
- tolerability ([4]; Mecp2 mice of both sexes and controls, locomotor and respiratory functions): safe and well tolerated
- effect on locomotor activity ([4]; IP or gavage, Mecp2 mice of either sex): did not impair locomotor activity
- IC50 [5]: 1.09 µM
- predicted oral bioavailability [6]: 80%
- stability in mouse plasma [7]: stable for greater than two hours
- concentration at two hours compared with galantamine ([7]; two hours): slightly lower than those of galantamine
- NOR task learning versus vehicle ([8]; Chi square p=0.0321): learned the NOR task significantly better than vehicle-injected Mecp2 mice
- share of mice with NOR scores = or below 0.5 [8, 18]: 65%
- share of mice with NOR scores above 0.5 [8, 18]: 35%
- adverse effects at very high doses ([9]; listed as n-butylcarbamate): wobbly and off-balance with rapid heart rate still present at 4 hours, but were recovered at 24 hours
- adverse effects at very high doses [9]: affects cardiac and motor functions at very high doses
- lethality (dose without lethality) [9]: > 100 mg/kg
- effect on respiratory activity [10]: did not affect respiratory activity
- effect of FK-1 antibody on the enhancement ([11]; antibody to the galantamine recognition site on nicotinic receptors): blocked by the antibody to the galantamine recognition site on nicotinic receptors, FK-1

Compound: COc1ccc2c3c1O[C@H]1C[C@@H](O)C=C[C@@]31CCN(C)C2 [Galantamine]
- clinical outcome in ASD [12]: some beneficial results
- increase of time remaining in the lighted compartment versus saline [1]: about 125 seconds
- best dose for memory enhancement [1]: 3 mg/kg
- mortality in mild cognitive impairment [13]: increased mortality
- episodes of rage [14]: striking decrease in episodes of rage
- plasma half-life [15]: about 7 hours
- enhancement of the depolarization caused by choline ([11]; 1 μM compound, 1.5 mM choline, primary cultured rat neurons): 20.6±4.2%

Compound: COc1ccc2c3c1O[C@H]1C[C@@H](O)C=C[C@@]31CCN(C)C2 [Galanthamine HBr, reference compound]
- NADPH-dependent CLint (microsomal intrinsic clearance) ([3]; 5.0 μM, Mouse): 0.0 μl min^−1 mg−^1
- NADPH-free CLint (microsomal intrinsic clearance) ([3]; 5.0 μM, Mouse): 0.0 μl min^−1 mg−^1
- half-life at 5 μM [3, 16]: > 1 h
- half-life at 5 μM [3, 17]: > 1 h
